# Data from patent US20220160680A1, “MICROORGANISM MIXTURES, MOLECULES DERIVED THEREFROM, AND METHODS OF USE THEREOF” (B. G. Negev Technologies and Applications Ltd., at …, priority 2018, published 2022).
# Entries after “also recorded” stand apart in the source; their conditions may differ. Like-named read-outs stand apart in the source and are kept apart here.
# Experiments:
# [1] = Oxygen radical absorbance capacity (ORAC) assay; format: biochemical; settings: AAPH-induced
# From the text: (§1) FIGS. 34A-34B are graphs showing the anti-oxidation effect of tryptophol acetate and tyrosol acetate. Anti-oxidative capacity of the molecules as measured by DPPH (34A) and ORAC (34B) assays. 34A. The results are presented as a percentage of absorbance inhibition (517 nm, the absorbance maximum of DPPH) in the presence of tryptophol acetate (1) alone, tyrosol acetate alone (2) alone, and 1+2 together. 34B. Fluorescence decay of fluorescein induced by AAPH in the absence or presence of 1 and 2. Reaction mixtures containing fluorescein (60 nM) and AAPH (18.75 mM) in 200 μl of phosphate buffer (75 mM, pH 7.4) were incubated at 37° C. for 800 min. Changes in fluorescence intensity emitted by fluorescein were monitored. Results are presented as the net area under the curve (AUC). Each value is the mean±SD of triplicate experiments. ***p<0.0001
# The ORAC experiment measures the quenching of fluorescein emission by peroxyl radicals, and inhibition of the oxidation reaction by molecular species added to the solution.
# [2] = system: V. cholerae VC1 (WT) and MM920; test: V. cholerae biofilm modulation (CLSM, crystal violet); format: cell-based, Vibrio cholerae
# Description: The various pathogenic indicator strains used in this study were V. cholerae strain MM920 (ACqsA AluxQ), Vibrio harveyi strain MM30 (LuxS, Tn5). To initiate biofilm formation, bacteria was grown in the absence of the V. cholerae autoinducer 1 (CAI1). In addition, the bacteria were grown in presence of: 900 nM CAI1 (Vibrio Cholerae MM920), 900 nM CAI1, 200 μM Tryptophol acetate and 200 μM Tyrosol acetate, and 200 μM Tryptophol acetate and 200 μM Tyrosol acetate.
# Biofilms were grown under shaking conditions at 30° C. in 96-well plate (Thermo Scientific, Rochester, N.Y., USA). […] The stained cells were washed twice with PBS. Biofilm images were taken by CLSM (Plan-Apochromat 20×/0.8 M27, Zeiss LSM880, Germany).
# For static biofilm assay, overnight cultures of V. cholerae strain MM920 was diluted 1:10 in fresh LB medium containing a final concentration of 100 μM from each Tryptophol acetate and Tyrosol acetate or DMSO (up to 1%) as control. […] One in absence of the V. cholerae autoinducer (CAI-1) and the other one in presence of 900 nM CAI-1. Biofilms were grown under non-shaking conditions at 37° C. in 96-well plate (Thermo Scientific, Rochester, N.Y., USA). […] The stained cells were washed twice with PBS. Biofilm images were taken by CLSM (Plan-Apochromat 20×/0.8 M27, Zeiss LSM880, Germany).
# Biofilm matrixes of V. cholerae VC1 WT (FIGS. 23Ai and 23Aii), and the V. cholerae MM920 mutant (FIGS. 23Aiii and 23Aiv) were grown for 24 hours with or without tryptophol acetate in the growth medium, and stained using the BacLight® Dead/Live Kit to distinguish viable cells.
# Peritoneal macrophages = test: In vitro LPS stimulation of peritoneal macrophages, cytokine ELISA (24 hr); format: cell-based, mice; settings: 100 μM, 0.1 μg/ml LPS
# Description: Peritoneal macrophages were harvested using the protocol as described previously (Zhang et al., 2008). Elicited macrophages were harvested from WT mice which had received a 2.5 ml intraperitoneal administration of 3% Brewer thioglycolate broth (Sigma, UK) 72 hr prior collection.
# Peritoneal macrophages cells (5×10^5/ml) were cultured with 0.1 μg/ml Lipopolysaccharides (LPS-Escherichia coli serotype 0127:B8, Sigma-Aldrich) and in the presence of 100 μM: tryptophol acetate, tyrosol acetate, dopamine HCl, caffeic acid, or combination of tryptophol acetate and tyrosol acetate, for 24 hr. Following culture, supernatants were collected and stored at −20° C. for the detection of the IL-6 cytokine. For IL-la detection, the inventors induced macrophages lysis by adding fresh RPMI medium and thawing three times.
# IL-la and IL-6 levels were measured in peritoneal exudate fluids and LPS-stimulated culture supernatants by ELISA. To detect the cytokines, a R&D ELISA kit (Catalog #MLA00 and DY406, respectively) was used as per the manufacturer's instructions. A standard curve was constructed using serial dilutions of purified IL-la or IL-6 starting at a concentration of 15 ng/ml.
# [3] = DPPH radical absorbance assay; format: biochemical; settings: 517 nm
# From the text: as §1
# The inventors analyzed the anti-oxidation properties of the molecules (FIG. 34) as oxidation processes and generation of reactive oxidative species (ROS) are recognized as contributing to toxic effects in diverse diseases and pathological conditions. FIG. 34 depicts application of a spectrophotometric assay monitoring the visible absorbance of the 2,2-diphenyl-1-picrylhydrazyl (DPPH) radical, which is widely employed for evaluating the anti-oxidation activity of biomolecules. […]
# Vibrio cholerae MM920 = test: Quorum sensing bioluminescence reporter assay; format: cell-based; settings: for IC50: Vibrio cholerae, read-out: IC50 of QS inhibition in V. cholera
# Description: Bioluminescence assay was performed with mutant bacteria lacking the nucleotide sequences encoding the relevant autoinducers (AI). Additionally, the bacteria were cloned with bioluminescence reporter plasmids in order to measure their luminescence intensity when quorum sensing gene expression occurs. Ninety-six (96) well microtiter plate assays were used to assess AI activation (agonist) or inhibition (antagonist) of the following bacteria: Agrobacterium tumefaciens, which responds to the C8 autoinducer, and both Vibrio cholerae and Vibrio harveyi, which respond to the (S)-4,5-dihydroxy-2,3-pentanedione (DPD) autoinducer to communicate.
# Agrobacterium tumefaciens A136 pCF218 pMV26 culture was grown in Luria-Bertani broth (LB; Miller's broth) supplemented with 25 μg/ml of kanamycin and 4.5 μg/ml of tetracycline at 28-30° C. for 24 h. Both Vibrio harveyi and Vibrio cholerae strains were grown in LB Broth (Lennox) supplemented with tetracycline at 30° C. for 24 h. The overnight cultures were diluted to an absorbance density (OD600) of 0.05 by fresh LB medium. The probiotic yogurt (e.g., kefir)-extracted molecules were tested at gradient concentration in two types of experiments: competition assay in the absence (activation/agonist) or presence (inhibition/antagonist) of 400 pM 3-oxo-C8-HSL (A. tumefaciens A136 pCF218 pMV26) CAI1 (Vibrio Cholerae MM920) 200 nM DPD (Vibrio harveyi MM30) and the OD600 of 0.05 by fresh LB medium. A clear bottom 96-well microliter plate was prepared with wells containing test compounds serially diluted into the LB medium (triplicates). A total of 100 μl of the diluted cells were added to each well. The control sample contained the bacteria and specific AI molecules without the yogurt extracted molecules. Luminescence was measured every 20 min for 19 h with continuous shaking at 30° C., using a Microtiter Plate Reader (Varioskan Flash, Thermo). Average luminescence values divided by OD600 values were plotted against the added compound concentration.
# The effect of the Kefir biomass crude extract molecules on the following bacteria, A. tumefaciens A136, V. cholerae MM920 and V. harveyi MM30 were measured as described by Brenier et al. (2008). The overnight culture was diluted to an absorbance density (OD600) of 0.05 by fresh LB medium. A clear bottom 96-well microliter plate was prepared with wells containing test compounds serially diluted into the LB medium (triplicates). A total of 100 μL of the diluted cells was added to each well. The control sample contained the bacteria and specific autoinducer molecules without the kefir crude extracted molecules. Luminescence was measured every 20 min for 19 h with continuous shaking at 30° C., using a Microtiter Plate Reader (Varioskan Flash, Thermo). Two types of experiments were performed: a competition assay in the presence of 400 pM 3-oxo-C8-HSL (A. tumefaciens A136), CAI-1 (V. Cholerae MM920) 200 nM DPD (V. harveyi MM30) and the other in the absence of these AI's to measure agonistic activity of the crude extracted molecules. Average luminescence values divided by OD600 values were plotted against the added compound concentration.
# V. cholerae toxin = test: GM1-ELISA cholerae toxin detection assay; format: cell-based, Vibrio cholerae
# Description: GM1 (monosialotetrahexosylganglioside) was seeded and immobilized on a 96-well white/clear bottom microtiter plate (Greiner) microtiter plates with the following procedure: GM1 stock solution (2 mg/mL in PBS) was diluted with PBS (final conc. 10 μg/mL). 200 μL of the GM1 solution was added to each well and incubated at 37° C. without shaking for 4-16 hours. The plates were washed with PBS (×3). Bovine serum albumin (BSA) was dissolved in PBS (final conc. 4 mg/mL) and 200 μL of the BSA-PBS were added to each well and incubated at 37° C. without shaking for at least 4 hours. The plates were washed with PBS (×3) and were stored in fridge until use. VC1 wild-type strain with of the tested compounds (Tryptophol acetate and Tyrosol acetate both in concentration of 100 μM) and a control with bacteria only, were grown and incubated with aeration and shaking overnight in LB medium at 30° C. The cultures were spinned-down for 5 min at 5,000 rcf and the supernatant was taken and diluted 1:2 with a BSA-PBS 4 mg/mL solution. […] 100 μL of the luminol working solution were added to each well, the plate was shaken for 1.5-2 minutes and the luminescence was measured using a Microtiter Plate Reader (Varioskan Flash, Thermo). Luminescence values were normalized to the control.
SMILES,Fluorescence decay of fluorescein [1],V. cholerae biofilm production ([2]; 100 μM),Production of IL-6 (Peritoneal macrophages),Production of IL-la (Peritoneal macrophages),Quenching of DPPH absorbance [3] [%],IC50 (Vibrio cholerae MM920) [µM],"Effect on QS in V. cholera, high volume (Vibrio cholerae MM920; high volume)","Effect on QS in V. cholera, high volume (Vibrio cholerae MM920; high volume, listed as 180 molecule)","Effect on QS in V. cholera, low volume (Vibrio cholerae MM920)","Effect on QS in V. cholera, low volume (Vibrio cholerae MM920; listed as 180 molecule)",V. cholerae toxin levels (V. cholerae toxin),"Biofilm volume, crystal violet (CV) assay ([2]; 0-200 μM, 24 hr)",Biofilm of V. cholerae MM920 with CAI-1 ([2]; 900 nM CAI-1 and 100 μM),"Biofilm matrix of V. cholerae VC1 WT ([2]; 100 μM, 24 hours)",IC50 (Vibrio cholerae MM920; high volume) [µM]
CC(=O)OCCc1ccc(O)cc1 [Tyrosol acetate],~800 min,inhibit,dramatically reduced,dramatically reduced,~3,24.4 ± 2.4,totally inhibits QS,totally inhibited QS,activates QS,activated QS,inhibit; also recorded: reduction of toxin production by V. cholerae in a dose dependent manner,,,,
CC(=O)OCCc1c[nH]c2ccccc12 [Tryptophol acetate],around 400 min,,dramatically reduced,dramatically reduced,10,,inhibits QS,,activates QS,,reduce V. cholerae toxin levels in a dose dependent manner,increased biofilm volume,re-formation of a dense and uniform biofilm layer,significantly denser biofilm,12.7 ± 2
